What was measured:
Test in all cases: relative viability (nuclei count vs DMSO), 5 days (fraction); higher = more cells survive
[1] = compound: Cc1ccc(C(=O)Nc2cccc(C(F)(F)F)c2)cc1Nc1cncc(C(N)=O)c1 [ALW-II-49-7] + NC(=O)Nc1cc(-c2cccc(F)c2)sc1C(=O)N[C@H]1CCCNC1 [AZD7762] (partner 0.2 µM)
How it was run: (§1)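 The day after seeding in 1536-well plates, lung cancer cell lines were treated by pin tool with a single drug, or with a fixed anchor-drug dose together with five library-drug doses (not always all listed) in √10 steps. After 5 days, a combined fix-and-stain solution (final 0.05% Triton X-100, 1% formaldehyde, 1 ug/ml Hoechst) was added. Nuclei counted on 4× images gave relative viability as treated counts over vehicle counts, reported as the median of duplicate plates.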

[2] = compound: Cc1nc(Nc2ncc(C(=O)Nc3c(C)cccc3Cl)s2)cc(N2CCN(CCO)CC2)n1 [Dasatinib] + CC1(C)CCC(c2ccc(Cl)cc2)=C(CN2CCN(c3ccc(C(=O)NS(=O)(=O)c4ccc(N[C@H](CCN5CCOCC5)CSc5ccccc5)c(S(=O)(=O)C(F)(F)F)c4)cc3)CC2)C1 [Navitoclax] (partner 0.5 µM)
How it was run: as §1

[3] = compound: Cc1nc(Nc2ncc(C(=O)Nc3c(C)cccc3Cl)s2)cc(N2CCN(CCO)CC2)n1 [Dasatinib] + CS(=O)(=O)N1CCN(Cc2cc3nc(-c4cccc5[nH]ncc45)nc(N4CCOCC4)c3s2)CC1 [Pictilisib] (partner 1 µM)
How it was run: as §1

[4] = compound: Cc1nc(Nc2ncc(C(=O)Nc3c(C)cccc3Cl)s2)cc(N2CCN(CCO)CC2)n1 [Dasatinib] + Cc1nc(NC(=O)N2CCC[C@H]2C(N)=O)sc1-c1ccnc(C(C)(C)C(F)(F)F)c1 [Alpelisib] (partner 2 µM)
How it was run: as §1

Cell Line | relative viability ([1]; first compound 0.08 µM) | relative viability ([1]; first compound 0.253 µM) | relative viability ([1]; first compound 0.8 µM) | relative viability ([1]; first compound 2.53 µM) | relative viability ([1]; first compound 8 µM) | relative viability ([2]; first compound 0.005 µM) | relative viability ([2]; first compound 0.01581 µM) | relative viability ([2]; first compound 0.05 µM) | relative viability ([2]; first compound 0.1581 µM) | relative viability ([2]; first compound 0.5 µM) | relative viability ([3]; first compound 0.005 µM) | relative viability ([3]; first compound 0.01581 µM) | relative viability ([3]; first compound 0.05 µM) | relative viability ([3]; first compound 0.1581 µM) | relative viability ([3]; first compound 0.5 µM) | relative viability ([4]; first compound 0.005 µM) | relative viability ([4]; first compound 0.01581 µM) | relative viability ([4]; first compound 0.05 µM) | relative viability ([4]; first compound 0.1581 µM) | relative viability ([4]; first compound 0.5 µM)
HCC-827 | 0.208 | 0.241 | 0.187 | 0.183 | 0.19 | 1.01 | 1.01 | 1.01 | 0.719 | 0.188 | 1.23 | 0.907 | 0.84 | 0.429 | 0.126 | 1.01 | 0.737 | 0.757 | 0.374 | 0.123
NCI-H322M | 0.557 | 0.584 | 0.484 | 0.698 | 0.481 | 1.28 | 1.27 | 1.31 | 0.524 | 0.237 | 0.433 | 0.408 | 0.37 | 0.245 | 0.171 | 0.855 | 0.773 | 0.696 | 0.459 | 0.203
ChaGo-K-1 | 0.94 | 0.996 | 0.882 | 0.768 | 0.807 | 0.618 | 1.08 | 0.965 | 0.909 | 0.923 | 0.435 | 0.761 | 0.774 | 0.649 | 0.626 |  |  |  |  | 
BEN | 0.723 | 0.769 | 0.666 | 0.799 | 0.765 | 0.0479 | 0.0657 | 0.0572 | 0.0599 | 0.0611 | 0.446 | 0.37 | 0.323 | 0.297 | 0.294 | 0.857 | 0.536 | 0.611 | 0.342 | 0.365
NCI-H2347 | 1.02 | 0.727 | 0.606 | 0.676 | 0.638 | 0.875 | 0.692 | 0.467 | 0.285 | 0.228 | 0.419 | 0.328 | 0.316 | 0.493 | 0.347 | 0.845 | 0.817 | 0.783 | 0.327 | 0.34
LOU-NH91 | 0.567 | 0.774 | 0.782 |  | 0.596 | 0.758 | 0.595 | 0.531 | 0.506 | 0.317 | 0.497 | 0.492 | 0.401 | 0.439 | 0.341 | 0.69 | 0.584 | 0.572 | 0.441 | 0.34
NCI-H2228 |  |  |  |  |  | 0.845 | 0.644 | 1.44 | 0.475 | 0.249 | 0.361 | 0.289 | 0.273 | 0.215 | 0.212 | 0.693 | 0.769 | 0.581 | 0.263 | 0.268
NCI-H2342 | 0.506 | 0.498 | 0.419 | 0.408 | 0.484 |  |  |  |  |  |  |  |  |  |  |  |  |  |  | 
HCC-366 | 0.264 | 0.259 | 0.24 | 0.245 | 0.203 | 0.561 | 0.601 | 0.39 | 0.569 | 0.217 | 0.0952 | 0.074 | 0.0543 | 0.0636 | 0.0661 | 0.096 | 0.174 | 0.141 | 0.151 | 0.103
NCI-H2405 | 0.746 | 0.808 | 0.553 | 0.645 | 0.485 | 0.684 | 0.424 | 0.254 | 0.165 | 0.116 | 0.353 | 0.294 | 0.261 | 0.197 | 0.16 | 0.621 | 0.334 | 0.366 | 0.23 | 0.162
Calu-6 |  |  |  |  |  | 0.762 | 0.759 | 0.646 | 0.571 | 0.589 | 0.732 | 0.65 | 0.742 | 0.604 | 0.527 | 0.801 | 0.665 | 0.731 | 0.613 | 0.576
201T | 0.661 | 0.604 | 0.745 | 0.574 | 0.552 | 1.15 | 1.2 | 1.13 | 1.01 | 0.65 | 0.664 | 0.517 | 0.627 | 0.521 | 0.383 | 0.95 | 0.922 | 0.845 | 0.654 | 0.338
CAL-12T | 0.5 | 0.641 | 0.744 | 0.349 | 0.588 | 1.36 | 1.17 | 1.49 | 1.35 | 0.97 | 0.303 | 0.586 | 0.337 | 0.223 | 0.128 | 1.15 | 1.03 | 1.62 | 1.13 | 0.355
HCC-44 | 0.992 | 1.02 | 1.03 | 1.03 | 0.964 | 0.93 | 0.916 | 0.98 | 0.761 | 0.436 | 0.517 | 0.392 | 0.39 | 0.291 | 0.148 | 0.789 | 0.705 | 0.676 | 0.271 | 0.183
NCI-H358 | 0.51 | 0.711 | 0.405 |  | 0.524 |  |  |  |  |  | 0.383 | 0.232 | 0.287 | 0.206 | 0.208 | 0.726 | 0.585 | 0.458 | 0.24 | 0.204
SW 900 | 0.616 | 0.485 |  | 0.554 | 0.542 |  |  |  |  |  |  |  |  |  |  |  |  |  |  | 
NCI-H2087 | 1.52 | 1.46 | 1.18 | 1.14 | 1.11 | 0.997 | 0.873 | 1.07 | 0.972 | 0.532 | 0.952 | 1.01 | 1.17 | 0.737 | 0.494 | 0.988 | 0.957 | 1.34 | 1.01 | 0.613
COR-L 105 |  |  |  |  |  | 0.588 | 0.49 | 0.52 | 0.368 | 0.278 | 0.359 | 0.383 | 0.316 | 0.308 | 0.245 | 0.671 | 0.486 | 0.715 | 0.452 | 0.209
LCLC-97TM1 | 0.228 | 0.418 | 0.328 | 0.156 | 0.179 | 0.448 | 0.488 | 0.579 | 0.413 | 0.282 | 0.206 | 0.206 | 0.192 | 0.18 | 0.12 | 0.266 | 0.246 | 0.24 | 0.254 | 0.143

— the supplement of paper PMC10307832
